Consider one compound from article PMC10788856, “Mimicking Nonribosomal Peptides from the Marine Actinomycete Streptomyces sp. H-KF8 Leads to Antimicrobial Peptides” (ACS Infectious Diseases, 2023).

Series [1] concerns Candida albicans (ATCC 64549/CCUG31028). Briefly: Minimum microbicidal concentration (MMC99) assay. Particulars: BHI diluted 1/100, 37 °C, median, n = 3. Format: cell-based, C. albicans. The method, then:
The microbicidal activity of the synthetic peptides was assessed against S. aureus (ATCC 12600; American Type Culture Collection, Manassas, VA, USA), Escherichia coli (CCUG 31246; Culture Collection, University of Gothenburg, Sweden), and Candida albicans (ATCC 64549/CCUG31028) using an MMC assay, as described previously by […] et al. (specific details in Supporting Information, pages 10, 11).[28] The assay was performed in BHI diluted 1/100 (BHI100). […] page 11: Table S5. Energy and structural ensembles of synthesized peptides. […] Energy -3887.06 -3620.88 -4968.42 -2163.76 -2646.75 Van der Waals solv. Energy 117.32 91.57 183.20 -88.88 -139.89 Mean RMSD* (Å), mean±SD […] Heavy atoms 1.87 ± 0.33 1.77 ± 0.50 0.98 ± 0.34 0.63 ±0.22 2.88 ±0.62 MMC99 activity including salt stability measurements Antimicrobial activity of L2 and L3 in the presence of NaCl. 1Table S6. Peptide MMC99 (μg/ml) sin NaCl S. aureus E.coli C. albicans (mM) 2[…] 0 50 25 25 85 - - - - - - >200 >200 >200 150 - - - - - - >200 >200 >200 3L 0 12.5 12.5 25 12,5 6.3 6.3 12.5 6.3 12.5 […] 150 >400 >400 (-)2 >400 >400 >400 >200 >200 >200 […] or 150 mM NaCl. L2 and L3 were serially diluted in twofold steps with a starting dilution of 200 μg/ml […] All sample dilutions were run in duplicates (L2) or triplicates (L3). 2 The growth of S. aureus at 24 h in BHI 100 with 85 or 150 mM NaCl was reduced. Minimum microbicidal concentration (MMC), killing 99% of the inoculum. All microorganisms were cultured in brain-heart infusion broth (BHI) overnight on a shaker at 37°C. The cultures were thereafter transferred to fresh BHI broth in volumes constituting 10% of total, and incubated for an additional 2 h to reach exponential growth phase. The bacterial cultures were washed once in BHI diluted 1/100 (BHI100), followed by resuspension in BHI100. The cell suspensions were diluted to a density of […] (bacteria) or 2x10^7 CFU/ml (yeast), as estimated by optical density measurement at 590 nm. […] Serum stability Figure S 133. […] A) peptide L2 B) peptide L3. C) peptide L3-K. D) peptide C3.

The next series deals with S. aureus. Briefly: microbe, parasite or virus in culture. Format: cell-based. Particulars: 16 h.
Series [2] concerns hepatoblastoma (HepG2) cells. Format: cell-based, human. Here is the method: (§1) To confirm the peptide selectivity toward bacteria cells, cytotoxicity assays of synthesized peptides L2, L3, L3-K, and C3 against human embryonic kidney (HEK) and hepatoblastoma (HepG2) were performed (Figure 4). The cell viability was assessed using resazurin 24 h post peptide exposure. The line at 70% cell viability marks out the threshold for cytotoxic potential compared to the negative control.
(§2) Figure 4 Cell viability assessment using the resazurin assay 24 h post peptide exposure: (a) HepG2 and (b) HEK cells were treated with various concentrations of the peptides C3, L3, L3-K, and L2. Triton-X was used as a positive control. Cells cultured in pure cell media were used as negative controls and were considered to have 100% cell viability. The line represents the threshold for cytotoxicity level of 70% of cell viability compared to the negative control. Data are presented as the mean ± SD of three biological replicates of the HepG2 cells and the mean ± SD of two biological replicates of the HEK cells.
(§3) Cytotoxicity against human embryonic kidney (HEK) and hepatoblastoma (HepG2) cell lines was assessed. Cells were grown to an initial seeding density of 10 000 cells per well. Metabolic activity was determined in a resazurin-based assay. HEK and HepG2 cells were exposed to four different concentrations of the peptides for 24 h. Treatment with Triton X-100 at 1% v/v was used as a positive control. Following this exposure period, the cells were treated with resazurin at a final concentration of 0.015 mg/mL for 3 h. The metabolic activity was then determined in an resazurin-based assay. The fluorescence intensities were quantified in a Hidex Sense microplate reader using an excitation wavelength of 544 nm and an emission wavelength of 590 nm.

Series [3] concerns human embryonic kidney (HEK) cells. Format: cell-based. Here is the method:
as §1, §2, §3

A further series has as its system E. coli CCUG31246. Briefly: DiSC(3)5 microscopy (membrane potential). Format: cell-based. Particulars: 0.5 μM DiSC(3)5. From the text: Propidium iodide is a large organic molecule that is not suitable to detect smaller ion-conducting pores or channels induced by antimicrobials. To assess whether the peptides may form smaller membrane pores sufficient for the passage of ions, we tested their effects on the membrane potential using the fluorescence probe DiSC(3)5.[40] This dye accumulates in the cell membrane in a membrane potential-dependent manner and disassociates, when the membrane potential is dissipated. […] This effect can be clearly seen with polymyxin B (Figure 7b).
The membrane potential of E. coli CCUG31246 and E. coli MC4100 carrying pABCON2-fhuA ΔC/Δ4L was measured by DiSC(3)5 microscopy according to ref. ([40]) with minor modifications. Cells were grown in 1:10 BHI containing 50 μg/mL bovine serum albumin to an OD600 of 0.3 prior to antibiotic treatment with the respective peptides for 10 and 60 min. Samples were stained with 0.5 μM DiSC(3)5 for 15 min (added 5 min before adding antibiotics for the 10 min time point and after 45 min of antibiotic treatment for the 60 min time point). Stained samples were spotted on 1.2% agarose, sealed with a gene frame, and imaged immediately. Microscopy was performed as described above, and fluorescence intensity was analyzed with the same parameters used for propidium iodide detection.

Series [4] concerns E. coli MC4100 pABCON2-fhuA ΔC/Δ4L. Briefly: DiSC(3)5 microscopy (membrane potential), outer membrane permeable strain. Format: cell-based. Particulars: 1× MIC; 10 and 60 min; 0.5 μM DiSC(3)5.
Description: To test this hypothesis, we employed an E. coli strain that overexpresses the outer membrane porin FhuA, making these cells more permeable to most fluorescence dyes including DiSC(3)5.[41]

Structures are written as SMILES. Numbered stars: 1 amine (or outer) side, 2 acyl side, 3 side chain; on linkers, the order of the positions; unused ones are H or OH. Bridge positions count the residues as written; N and C are the ends. Square brackets hold non-standard residues; d marks the D form. Peptide text beside a SMILES is read from it. Tyr(3-NO2) = N[C@@H](Cc1ccc(O)c([N+](=O)[O-])c1)C(=O)O; Glutaryl = O=C(CCCC(=O)[*:2])[*:1]; Orn = NCCC[C@H](N)C(=O)O

Take `CC(C)[C@H]1NC(=O)[C@H](CCCN)NC(=O)[C@H]([C@@H](C)O)NC(=O)[C@H](CCCN)NC(=O)[C@H](Cc2c[nH]c3ccccc23)NC(=O)[C@@H](C)NC(=O)[C@@H](C(C)C)NC(=O)[C@@H](C)NC(=O)[C@H](Cc2c[nH]c3ccccc23)NC(=O)CCCC(=O)NCCCC[C@@H](C(N)=O)NC(=O)[C@H](Cc2ccc(O)c([N+](=O)[O-])c2)NC1=O` [C3] (W[dA][dV][dA]W[Orn]T[Orn][dV][Tyr(3-NO2)]K-NH2; linker N-11 via Glutaryl): in series [1] (2 h), the “C. albicans MMC99 2 h” value was >100 µg/mL. Moreover, the “C. albicans MMC99 6 h” value in series [1] (6 h) is >100 µg/mL. For the same compound, the “C. albicans MMC99 24 h” value in series [1] (24 h) was >100 µg/mL. Further, the “S. aureus MIC” value in the series with S. aureus was >512 µg/mL. Further, in series [2], the “cytotoxicity, cell viability HepG2” value is on record as “at the highest tested concentration seems to have cytotoxic properties”. For the same compound, the “cytotoxicity, cell viability HEK” value in series [3] was “at the highest tested concentration seems to have cytotoxic properties”. Moreover, the “membrane potential, DiSC(3)5 fluorescence, 10 min” value in the series with E. coli CCUG31246 (1× MIC of peptide, polymyxin B 10 μg/mL, 10 min) is listed as “no effect on the membrane potential”. Moreover, the “membrane potential, DiSC(3)5 fluorescence, 60 min” value in the series with E. coli CCUG31246 (1× MIC, 60 min) is recorded as “partial depolarization”. In series [4], the “membrane depolarization in the FhuA-overexpressing strain” value is listed as “stronger depolarization in the FhuA-overexpressing strain”.
